Reference: PubChem BioAssay (NCI)
Where “and” joins values, the source holds several entries; their conditions need not be identical. Identical values can stand only once.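 How tested: cells in 96-well plates exposed to compound for 48 hours at five concentrations. GI50: concentration for 50% inhibition of growth. TGI: total growth inhibition.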

Key:
Test in all cases: growth of human tumour cells (NCI), 48 h
[1] = test system: A549 NSCLC
[2] = test system: EKVX NSCLC
[3] = test system: HOP-62 NSCLC
[4] = test system: HOP-92 NSCLC
[5] = test system: K-562 leukemia
[6] = test system: MALME-3M melanoma
[7] = test system: NCI/ADR-RES ovarian
[8] = test system: SK-MEL-28 melanoma
[9] = test system: SR leukemia
[10] = test system: TK-10 renal

SMILES	TGI [1]	TGI [2]	TGI [3]	TGI [4]	TGI [5]	TGI [6]	TGI [7]	TGI [8]	TGI [9]	TGI [10]	GI50 [1]	GI50 [2]	GI50 [3]	GI50 [5]	GI50 [7]	GI50 [8]	GI50 [9]	GI50 [10]	GI50 [4]	GI50 [6]
COC(=O)C1(C)CCC(c2ccc(C)cc2)=C(CC(=O)O)C1 (centres undefined)	> 100 µM	> 100 µM	> 100 µM	> 100 µM	> 100 µM	> 100 µM	> 100 µM	> 100 µM	> 100 µM	> 100 µM	–	–	–	–	–	–	–	–	–	–
COc1ccc(C(=O)c2cc(OC)c(OC)c(OC)c2)cc1OC(=O)CCl	> 100 µM	> 100 µM	> 100 µM	> 100 µM	> 100 µM	> 100 µM	> 100 µM	> 100 µM	> 100 µM	> 100 µM	0.164 µM	0.832 µM	0.224 µM	< 0.0123 µM	< 0.0167 µM	0.358 µM	< 0.01 µM	19.4 µM	–	–
COc1ccc(-c2c[nH]c(C(=O)O)c2-c2cc(OC)c(OC)c(OC)c2)cc1	> 100 µM	> 100 µM	> 100 µM	> 100 µM	> 100 µM	> 100 µM	> 100 µM	> 100 µM	> 100 µM	> 100 µM	6.61 µM	5.86 µM	5.87 µM	3.08 µM	3.8 µM	> 100 µM	2.92 µM	> 100 µM	5.68 µM	4.37 µM
CN(O)c1nc(N(C)O)nc(N2CCOCC2)n1	> 100 µM	> 100 µM	> 100 µM	> 100 µM	> 100 µM	> 100 µM	> 100 µM	> 100 µM	> 100 µM	> 100 µM	2.94 µM	1.9 µM	2.27 µM	> 100 µM	2.56 µM	7.08 µM	4.01 µM	5.89 µM	8.77 µM	12.3 µM
COc1ccc(-c2cc(=O)[nH]c3c(OC)c4ccccc4c(OC)c23)cc1	> 100 µM	> 100 µM	> 100 µM	> 100 µM	> 100 µM	> 100 µM	–	> 100 µM	> 100 µM	> 100 µM	0.708 µM	2.87 µM	1.47 µM	0.346 µM	0.291 µM	3.45 µM	0.431 µM	> 42.4 µM	0.409 µM	2.99 µM
Cc1cc(O)c(C(C)C)cc1S(=O)(=O)O (tested in a mixture with another compound)	–	> 100 µM and 14.3 µM	–	1.66 µM	–	–	4.79 µM	–	–	–	0.372 µM	0.678 µM	0.442 µM	0.375 µM	0.658 µM	0.634 µM	0.16 µM	1.22 µM	0.188 µM	0.774 µM
COc1cc(C[C@H]2c3cc(OC)c(OC)cc3CCN2C)c(Oc2cc3c(cc2OC)-c2c(OC)c(OC)cc4c2[C@H](C3)N(C)CC4)cc1OC	28.2 µM and 29.4 µM	34.6 µM and 32.7 µM	24 µM and 35.6 µM	8.94 µM and 28.8 µM	15.6 µM and 5.4 µM	17 µM and 10.2 µM	32.3 µM	9.03 µM and 8.73 µM	28.6 µM and 7.84 µM	12.9 µM and 29.2 µM	15.6 µM	17.6 µM	19.9 µM	1.49 µM	–	2.94 µM	2.44 µM	15.7 µM	13.3 µM	5.39 µM
